# Test results taken from ChEMBL document CHEMBL1135323, “Dihydroquinolines as novel n-NOS inhibitors” (Bioorg Med Chem Lett, 2002).
# Assays:
# Nitric oxide synthase 1 = Nitric oxide synthase 1 (Homo sapiens, UniProt P29475); assay: Concentration required to inhibit neuronal nitric oxide synthase
# [1] = molecular target: Nitric oxide synthase, inducible (Homo sapiens, UniProt P35228); assay: In vitro inhibition of inducible nitric oxide synthase.
# Nitric oxide synthase 3 = molecular target: T1, Nitric oxide synthase 3 (Homo sapiens, UniProt P29474); assay: In vitro inhibition of endothelial nitric oxide synthase.
# T1 sequence (P29474 whole entry): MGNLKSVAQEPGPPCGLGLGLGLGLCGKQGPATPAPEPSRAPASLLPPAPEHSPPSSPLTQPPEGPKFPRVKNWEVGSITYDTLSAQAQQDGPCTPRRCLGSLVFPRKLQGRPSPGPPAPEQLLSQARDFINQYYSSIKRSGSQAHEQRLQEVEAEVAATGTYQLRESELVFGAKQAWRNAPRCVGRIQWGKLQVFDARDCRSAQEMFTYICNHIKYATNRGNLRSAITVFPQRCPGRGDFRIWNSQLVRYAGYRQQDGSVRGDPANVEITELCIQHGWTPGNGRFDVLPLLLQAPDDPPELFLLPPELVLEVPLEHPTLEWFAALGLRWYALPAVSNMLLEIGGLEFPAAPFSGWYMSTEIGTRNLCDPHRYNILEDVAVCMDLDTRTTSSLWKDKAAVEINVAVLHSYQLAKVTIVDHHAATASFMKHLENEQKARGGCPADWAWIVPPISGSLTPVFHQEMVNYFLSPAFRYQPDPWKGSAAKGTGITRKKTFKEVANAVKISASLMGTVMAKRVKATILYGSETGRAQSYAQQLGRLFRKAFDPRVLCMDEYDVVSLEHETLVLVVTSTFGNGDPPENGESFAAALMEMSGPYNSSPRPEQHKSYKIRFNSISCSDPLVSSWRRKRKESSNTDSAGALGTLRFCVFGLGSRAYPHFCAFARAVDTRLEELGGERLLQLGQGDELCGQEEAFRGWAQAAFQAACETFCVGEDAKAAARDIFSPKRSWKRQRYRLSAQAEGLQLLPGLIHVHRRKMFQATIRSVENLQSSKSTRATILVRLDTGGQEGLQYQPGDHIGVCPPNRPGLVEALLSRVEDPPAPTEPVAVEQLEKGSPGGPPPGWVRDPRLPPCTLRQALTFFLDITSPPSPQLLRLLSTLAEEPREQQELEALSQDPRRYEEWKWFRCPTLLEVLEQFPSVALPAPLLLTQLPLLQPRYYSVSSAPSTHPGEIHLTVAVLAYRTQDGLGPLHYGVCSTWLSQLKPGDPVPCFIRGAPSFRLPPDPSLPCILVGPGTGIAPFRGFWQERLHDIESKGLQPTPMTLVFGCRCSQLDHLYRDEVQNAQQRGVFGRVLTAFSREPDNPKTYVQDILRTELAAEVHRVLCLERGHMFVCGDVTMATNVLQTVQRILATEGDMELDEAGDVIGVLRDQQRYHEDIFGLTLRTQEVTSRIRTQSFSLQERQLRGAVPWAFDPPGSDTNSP
# Chain of Nitric oxide synthase, inducible (P35228 whole entry): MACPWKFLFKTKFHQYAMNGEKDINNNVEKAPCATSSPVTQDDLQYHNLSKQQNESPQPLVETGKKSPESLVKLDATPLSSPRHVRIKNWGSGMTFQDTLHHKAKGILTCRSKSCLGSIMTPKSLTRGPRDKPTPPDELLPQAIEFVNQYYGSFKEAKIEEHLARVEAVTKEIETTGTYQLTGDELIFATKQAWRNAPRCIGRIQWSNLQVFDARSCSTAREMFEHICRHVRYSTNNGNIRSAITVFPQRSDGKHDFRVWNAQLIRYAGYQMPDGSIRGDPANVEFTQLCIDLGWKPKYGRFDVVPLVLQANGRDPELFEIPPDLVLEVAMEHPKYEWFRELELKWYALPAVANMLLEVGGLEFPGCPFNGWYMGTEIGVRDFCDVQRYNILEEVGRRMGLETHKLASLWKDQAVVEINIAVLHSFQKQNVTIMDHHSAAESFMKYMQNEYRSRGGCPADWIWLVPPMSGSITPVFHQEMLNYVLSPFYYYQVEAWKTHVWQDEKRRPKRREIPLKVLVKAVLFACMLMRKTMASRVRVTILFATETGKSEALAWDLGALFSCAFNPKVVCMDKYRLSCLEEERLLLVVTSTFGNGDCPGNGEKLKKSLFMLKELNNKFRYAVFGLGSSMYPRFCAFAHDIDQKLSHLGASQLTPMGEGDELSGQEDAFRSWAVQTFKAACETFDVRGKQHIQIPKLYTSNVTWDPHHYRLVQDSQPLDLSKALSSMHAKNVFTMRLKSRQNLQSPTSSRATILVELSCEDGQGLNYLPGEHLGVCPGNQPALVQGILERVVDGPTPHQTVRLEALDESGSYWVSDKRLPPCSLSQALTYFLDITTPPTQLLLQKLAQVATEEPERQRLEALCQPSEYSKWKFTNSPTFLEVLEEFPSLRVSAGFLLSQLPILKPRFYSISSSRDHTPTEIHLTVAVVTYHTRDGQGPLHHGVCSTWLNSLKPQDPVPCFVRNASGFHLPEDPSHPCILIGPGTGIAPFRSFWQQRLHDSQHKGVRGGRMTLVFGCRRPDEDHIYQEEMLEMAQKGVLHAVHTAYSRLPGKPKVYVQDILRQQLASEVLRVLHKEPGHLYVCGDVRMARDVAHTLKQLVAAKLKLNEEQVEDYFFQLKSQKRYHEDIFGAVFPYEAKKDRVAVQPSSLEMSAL
# Chain of Nitric oxide synthase 1 (P29475 whole entry): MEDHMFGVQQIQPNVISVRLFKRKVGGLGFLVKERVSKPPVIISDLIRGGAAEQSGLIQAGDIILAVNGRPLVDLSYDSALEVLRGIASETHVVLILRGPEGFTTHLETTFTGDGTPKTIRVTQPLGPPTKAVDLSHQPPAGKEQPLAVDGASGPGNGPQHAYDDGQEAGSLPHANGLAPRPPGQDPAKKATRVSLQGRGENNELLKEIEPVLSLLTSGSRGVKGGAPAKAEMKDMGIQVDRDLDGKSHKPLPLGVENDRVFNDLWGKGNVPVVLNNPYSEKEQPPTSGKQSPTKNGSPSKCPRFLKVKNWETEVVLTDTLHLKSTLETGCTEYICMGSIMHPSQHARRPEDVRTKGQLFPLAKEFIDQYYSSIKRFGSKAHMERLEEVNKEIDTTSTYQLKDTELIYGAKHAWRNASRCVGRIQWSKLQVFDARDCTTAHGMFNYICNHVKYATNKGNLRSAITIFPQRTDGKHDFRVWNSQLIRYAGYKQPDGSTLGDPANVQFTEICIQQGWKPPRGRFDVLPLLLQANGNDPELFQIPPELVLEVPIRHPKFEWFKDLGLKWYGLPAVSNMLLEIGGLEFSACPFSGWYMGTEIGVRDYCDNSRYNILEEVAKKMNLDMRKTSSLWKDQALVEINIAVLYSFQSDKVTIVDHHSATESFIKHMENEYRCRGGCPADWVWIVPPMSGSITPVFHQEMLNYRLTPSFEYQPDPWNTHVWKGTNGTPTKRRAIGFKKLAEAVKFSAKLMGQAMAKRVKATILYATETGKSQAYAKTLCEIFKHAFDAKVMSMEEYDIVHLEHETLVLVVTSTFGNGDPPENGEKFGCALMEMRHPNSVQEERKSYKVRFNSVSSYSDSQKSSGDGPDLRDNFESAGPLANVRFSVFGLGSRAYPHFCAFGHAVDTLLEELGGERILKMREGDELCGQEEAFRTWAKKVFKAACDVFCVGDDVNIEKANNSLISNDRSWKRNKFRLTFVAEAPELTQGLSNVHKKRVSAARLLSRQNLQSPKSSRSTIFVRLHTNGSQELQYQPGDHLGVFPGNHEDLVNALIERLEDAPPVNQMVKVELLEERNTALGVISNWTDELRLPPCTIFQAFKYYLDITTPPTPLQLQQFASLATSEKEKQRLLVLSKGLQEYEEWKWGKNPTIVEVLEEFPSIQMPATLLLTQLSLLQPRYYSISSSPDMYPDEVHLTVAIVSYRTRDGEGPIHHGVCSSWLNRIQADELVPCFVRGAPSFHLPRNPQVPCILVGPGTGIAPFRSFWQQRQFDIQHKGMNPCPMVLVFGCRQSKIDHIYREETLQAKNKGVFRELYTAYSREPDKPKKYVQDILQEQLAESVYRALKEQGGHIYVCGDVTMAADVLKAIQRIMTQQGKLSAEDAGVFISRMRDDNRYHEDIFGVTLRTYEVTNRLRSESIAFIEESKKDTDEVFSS
IC50 (Nitric oxide synthase 1) [µM],IC50 [1] [µM],IC50 (Nitric oxide synthase 3) [µM],SMILES
0.14,5.7,6.2,NC1=Nc2ccc(Cl)cc2[C@H]2CCC[C@@H]12
1.6,89,57,NC1=Nc2ccc(C(F)(F)F)cc2[C@H]2CCC[C@@H]12
0.73,35,72,NC1=Nc2c(F)cc(Cl)cc2[C@H]2CCC[C@@H]12
> 100,–,–,CNC1=Nc2ccccc2[C@H]2CCC[C@@H]12
0.17,2.3,5.8,NC1=Nc2c(F)cccc2[C@H]2CCC[C@@H]12
> 200,–,–,c1ccc2c(c1)NC[C@@H]1CCC[C@H]21
0.13,1.1,2.3,NC1=Nc2cc(F)ccc2[C@H]2CCC[C@@H]12
6.8,–,–,NC1=Nc2ccccc2[C@H]2CCCC[C@@H]12
0.13,4.1,0.96,NC1=Nc2ccccc2[C@H]2COC[C@@H]12
0.19,1.1,6.2,Cc1ccc2c(c1)N=C(N)[C@@H]1CCC[C@H]21
0.16,2.7,3.3,NC1=Nc2ccccc2[C@H]2CCC[C@@H]12
0.31,2.6,12,NC1=Nc2cc([N+](=O)[O-])ccc2[C@H]2CCC[C@@H]12
0.64,32,54,N#Cc1ccc2c(c1)[C@H]1CCC[C@H]1C(N)=N2
0.5,12,21,Cc1ccc2c(c1)[C@H]1CCC[C@H]1C(N)=N2
0.31,14,17,NC1=Nc2ccc(Br)cc2[C@H]2CCC[C@@H]12
> 100,–,–,ONC1=Nc2ccccc2[C@H]2CCC[C@@H]12
0.64,13,24,COc1ccc2c(c1)[C@H]1CCC[C@H]1C(N)=N2
0.24,1.4,4.1,COc1ccc2c(c1)N=C(N)[C@@H]1CCC[C@H]21
0.11,1.7,2.3,NC1=Nc2ccc(F)cc2[C@H]2CCC[C@@H]12
0.68,5.1,20,NC1=Nc2c(ccc(F)c2F)[C@H]2CCC[C@@H]12
2.1,78,> 200,NC1=Nc2c(cc(Cl)c(F)c2F)[C@H]2CCC[C@@H]12
3.3,–,–,NC1=Nc2ccccc2N2CCCC12 (stereo unspecified)
100,–,–,NC1=Nc2ccccc2[C@H]2CCCCC[C@@H]12
4.1,30,> 200,NC1=Nc2c(Cl)cc(Cl)cc2[C@H]2CCC[C@@H]12
0.25,15,34,NC1=Nc2ccc([N+](=O)[O-])cc2[C@H]2CCC[C@@H]12

SMILES,IC50 (Nitric oxide synthase 1) [µM],IC50 [1] [µM],IC50 (Nitric oxide synthase 3) [µM]
COC(=O)[C@@H](N)CCCNC(=N)N[N+](=O)[O-] [L-NAME],1.6,8,1.5
